Patent US20250340560A1, “SUBSTITUTED PYRAZOLO[1,5-a]PYRIMIDINES AS BRUTON'S TYROSINE KINASE MODULATORS” (BEIGENE SWITZERLAND GMBH, priority 2013, published 2025)
Where a name gives a salt, the structure may show the parent alone.

The compounds below were run against Recombinant Btk (Homo sapiens (Human), UniProt Q06187) (assay: BTK kinase assay (TR-FRET)). Conditions: read-out: IC50 (nM) Btk; 1 hour pre-incubation, ATP at Km.
Chain of Recombinant Btk (Q06187 whole entry): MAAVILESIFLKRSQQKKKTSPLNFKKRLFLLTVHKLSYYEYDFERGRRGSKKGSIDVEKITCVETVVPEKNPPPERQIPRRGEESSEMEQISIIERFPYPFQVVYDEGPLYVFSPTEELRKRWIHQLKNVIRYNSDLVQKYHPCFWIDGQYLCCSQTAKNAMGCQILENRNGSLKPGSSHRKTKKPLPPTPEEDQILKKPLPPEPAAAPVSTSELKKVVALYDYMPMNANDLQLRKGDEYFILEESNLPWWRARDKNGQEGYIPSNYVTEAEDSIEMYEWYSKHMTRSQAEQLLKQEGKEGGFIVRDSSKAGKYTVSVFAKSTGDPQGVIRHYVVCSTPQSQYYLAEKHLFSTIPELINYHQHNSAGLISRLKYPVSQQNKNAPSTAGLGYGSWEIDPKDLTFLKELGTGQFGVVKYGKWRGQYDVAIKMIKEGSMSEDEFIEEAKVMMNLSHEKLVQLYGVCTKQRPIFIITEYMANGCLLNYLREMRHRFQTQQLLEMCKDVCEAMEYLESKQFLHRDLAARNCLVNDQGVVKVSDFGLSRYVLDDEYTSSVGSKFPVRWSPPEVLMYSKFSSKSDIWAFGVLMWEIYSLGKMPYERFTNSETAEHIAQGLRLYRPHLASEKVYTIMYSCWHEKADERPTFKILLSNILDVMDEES
In the case of `NC(=O)c1c(-c2ccc(Oc3ccccc3)cc2)nn2c1[nH]c1cc([N+](=O)[O-])ccc12` [Compound 128, 6-nitro-2-(4-phenoxyphenyl)-4H-benzo[4,5]imidazo[1,2-b]pyrazole-3-carboxamide], the IC50 is reported as 930 nM.
`C=CC(=O)Nc1ccc2c(c1)-n1nc(-c3ccc(Oc4ccccc4)cc3)c(C(N)=O)c1NC2` [Compound 69, 8-Acrylamido-2-(4-phenoxyphenyl)-4,5-dihydropyrazolo[1,5-a]quinazoline-3-carboxamide] gave an IC50 of 7.8 nM.
Work on `C=CC(=O)Nc1ccccc1C1CCNc2c(C(N)=O)c(-c3ccc(Oc4ccc(F)cc4)cc3)nn21` (stereo not shown) [Compound 12, 7-(2-Acrylamidophenyl)-2-(4-(4-fluorophenoxy)phenyl)-4,5,6,7-tetrahydropyrazolo[1,5-a]pyrimidine-3-carboxamide] yielded an IC50 of 1.7 nM.
`NC(=O)c1c(-c2ccc(Oc3ccccc3)cc2)nn2c(-c3cccc(N)c3)ccnc12` [Compound 7, 7-(3-Aminophenyl)-2-(4-phenoxyphenyl)pyrazolo[1,5-a]pyrimidine-3-carboxamide] gave an IC50 of over 10000 nM.
`CN(C)CC#CC(=O)N1CCC([C@@H]2CCNc3c(C(N)=O)c(-c4ccc(Oc5ccccc5)cc4)nn32)CC1` [Compound 188, (S)-7-(1-(4-(Dimethylamino)but-2-ynoyl)piperidin-4-yl)-2-(4-phenoxyphenyl)-4,5,6,7-tetrahydropyrazolo[1,5-a]pyrimidine-3-carboxamide] was tested, and the IC50 was 1.1 nM.
`C=CC(=O)N1CCC2(CC1)C(=O)Nc1c(C(N)=O)c(-c3ccc(Oc4ccccc4)cc3)nn12` [Compound 83, 1′-Acryloyl-2-oxo-6-(4-phenoxyphenyl)-1,2-dihydrospiro[imidazo[1,2-b]pyrazole-3,4′-piperidine]-7-carboxamide] was tested, and the IC50 was 130 nM.
`NC(=O)c1c(-c2ccc(Oc3ccccc3)cc2)nn2c1NCC1(CNC1)C2` [Compound 87, 2′-(4-Phenoxyphenyl)-5′,7′-dihydro-4′H-spiro[azetidine-3,6′-pyrazolo[1,5-a]pyrimidine]-3′-carboxamide] gave an IC50 of 2000 nM.
`NC(=O)c1c(-c2ccc(Oc3ccc(F)cc3)cc2)nn2c1NCCC2c1ccccc1N` (stereo not shown) [Compound 11, 7-(2-Aminophenyl)-2-(4-(4-fluorophenoxy)phenyl)-4,5,6,7-tetrahydro pyrazolo[1,5-a]pyrimidine-3-carboxamide] was tested, and the IC50 was 4500 nM.
In the case of `C=CC(=O)Nc1ccccc1C1CCNc2c(C(N)=O)c(-c3ccc(OC)c(OC)c3)nn21` (stereo not shown) [Compound 168, 7-(2-Acrylamidophenyl)-2-(3,4-dimethoxyphenyl)-4,5,6,7-tetrahydropyrazolo[1,5-a]pyrimidine-3-carboxamide], the IC50 is reported as 3.2 nM.
`NC(=O)c1c(-c2ccc(Oc3ccccc3)cc2)nn2c1NCCC2c1ccccn1` (stereo not shown) [Compound 102, 2-(4-phenoxyphenyl)-7-(pyridin-2-yl)-4,5,6,7-tetrahydropyrazolo[1,5-a]pyrimidine-3-carboxamide] was tested, and the IC50 was 830 nM.
In the case of `CC#CC(=O)N1CCC(C2CCNc3c(C(N)=O)c(-c4ccc(Oc5cccc(Cl)c5)cc4)nn32)CC1` (stereo not shown) [Compound 195, 7-(1-(But-2-ynoyl)piperidin-4-yl)-2-(4-(3-chlorophenoxy)phenyl)-4,5,6,7-tetrahydropyrazolo[1,5-a]pyrimidine-3-carboxamide], the IC50 is reported as 8 nM.
`C=CC(=O)Nc1ccccc1C1CCNc2c(C(N)=O)c(-c3ccc(Cl)c(C(F)(F)F)c3)nn21` (stereo not shown) [Compound 163, 7-(2-Acrylamidophenyl)-2-(4-chloro-3-(trifluoromethyl)phenyl)-4,5,6,7-tetrahydropyrazolo[1,5-a]pyrimidine-3-carboxamide] gave an IC50 of 7.3 nM.
For `C=CC(=O)NC1CNc2c(C(N)=O)c(-c3ccc(Oc4ccccc4)cc3)nn2C1` (stereo not shown) [Compound 85, 6-Acrylamido-2-(4-phenoxyphenyl)-4,5,6,7-tetrahydropyrazolo[1,5-a]pyrimidine-3-carboxamide], the IC50 was 32 nM.
`C=CC(=O)Nc1cc(Cl)ccc1C1CCNc2c(C(N)=O)c(-c3ccc(OCC4CC4)cc3)nn21` (stereo not shown) [Compound 147, 7-(2-Acrylamido-4-chlorophenyl)-2-(4-(cyclopropylmethoxy)phenyl)-4,5,6,7-tetrahydropyrazolo[1,5-a]pyrimidine-3-carboxamide] was tested, and the IC50 was 2.7 nM.
`C=CC(=O)N1CCc2[nH]c3c(C(N)=O)c(-c4ccc(OCc5ccccc5)cc4)nn3c2C1` [Compound 126, 7-Acryloyl-2-(4-(benzyloxy)phenyl)-5,6,7,8-tetrahydro-4H-pyrazolo[5′,1′:2,3]imidazo[4,5-c]pyridine-3-carboxamide] was tested, and the IC50 was 20 nM.
With `C=CC(=O)N(C)c1ccccc1C1CCNc2c(C(N)=O)c(-c3ccc(Oc4ccc(F)cc4)cc3)nn21` (stereo not shown) [Compound 16, 2-(4-(4-Fluorophenoxy)phenyl)-7-(2-(N-methylacrylamido)phenyl)-4,5,6,7-tetrahydropyrazolo[1,5-a]pyrimidine-3-carboxamide] the IC50 was 19 nM.
`NC(=O)c1c(-c2ccc(Oc3ccccc3)cc2)nn2c1NCCc1cc(N)ccc1-2` [Compound 71, 8-Amino-2-(4-phenoxyphenyl)-5,6-dihydro-4H-benzo[f]pyrazolo[1,5-a][1,3]diazepine-3-carboxamide] gave an IC50 of 55 nM.
`CC(=O)N1CCc2[nH]c3c(C(N)=O)c(-c4ccc(Oc5ccccc5)cc4)nn3c2C1` [Compound 55, 7-Acetyl-2-(4-phenoxyphenyl)-5,6,7,8-tetrahydro-4H-pyrazolo[5′,1′:2,3]imidazo [4,5-c]pyridine-3-carboxamide] gave an IC50 of 82 nM.
`CN(C)C/C=C/C(=O)Nc1ccccc1C1CCNc2c(C(N)=O)c(-c3ccc(Oc4ccccc4)cc3)nn21` (stereo not shown) [Compound 92, (E)-7-(2-(4-(dimethylamino)but-2-enamido)phenyl)-2-(4-phenoxyphenyl)-4,5,6,7-tetrahydropyrazolo[1,5-a]pyrimidine-3-carboxamide] was tested, and the IC50 was 1.1 nM.
In the case of `C=CC(=O)Nc1ccccc1C1CCNc2c(C(N)=O)c(-c3cccc(OC)c3)nn21` (stereo not shown) [Compound 166, 7-(2-Acrylamidophenyl)-2-(3-methoxyphenyl)-4,5,6,7-tetrahydropyrazolo[1,5-a]pyrimidine-3-carboxamide], the IC50 is reported as 2.7 nM.
Compound `C=CC(=O)N1CC(C2CCNc3c(C(N)=O)c(-c4ccc(OCc5ccccn5)cc4)nn32)C1` (stereo not shown) [Compound 105, 7-(1-acryloylazetidin-3-yl)-2-(4-(pyridin-2-ylmethoxy)phenyl)-4,5,6,7-tetrahydropyrazolo[1,5-a]pyrimidine-3-carboxamide] has an IC50 of 18 nM.
`C=CC(=O)N1CC(C2(C)CCNc3c(C(N)=O)c(-c4ccc(Oc5ccccc5)cc4)nn32)C1` (stereo not shown) [Compound 175, 7-(1-Acryloylazetidin-3-yl)-7-methyl-2-(4-phenoxyphenyl)-4,5,6,7-tetrahydropyrazolo[1,5-a]pyrimidine-3-carboxamide] gave an IC50 of 1.2 nM.
Compound `CC#CC(=O)N1CCC(C2CCNc3c(C(N)=O)c(-c4ccc(Oc5ccc(F)cc5F)cc4)nn32)CC1` (stereo not shown) [Compound 179, 7-(1-(But-2-ynoyl)piperidin-4-yl)-2-(4-(2,4-difluorophenoxy)phenyl)-4,5,6,7-tetrahydropyrazolo[1,5-a]pyrimidine-3-carboxamide] has an IC50 of 48 nM.
With `CCC#CC(=O)N1CCC([C@@H]2CCNc3c(C(N)=O)c(-c4ccc(Oc5ccccc5)cc4)nn32)CC1` [Compound 186, (S)-7-(1-(Pent-2-ynoyl)piperidin-4-yl)-2-(4-phenoxyphenyl)-4,5,6,7-tetrahydropyrazolo[1,5-a]pyrimidine-3-carboxamide] the IC50 was 1.1 nM.
For `C=CC(=O)Nc1ccccc1C1CCNc2c(C(N)=O)c(-c3ccc(F)c(F)c3)nn21` (stereo not shown) [Compound 137, 7-(2-acrylamidophenyl)-2-(3,4-difluorophenyl)-4,5,6,7-tetrahydropyrazolo[1,5-a]pyrimidine-3-carboxamide], the IC50 was 3.2 nM.
Work on `NC(=O)c1c(-c2ccc(Oc3ccccc3)cc2)nn2c1NCC(c1ccccc1N)C2` (stereo not shown) [Compound 89, 6-(2-Aminophenyl)-2-(4-phenoxyphenyl)-4,5,6,7-tetrahydropyrazolo[1,5-a]pyrimidine-3-carboxamide] yielded an IC50 of over 10000 nM.
`CC#CC(=O)NCC1CCNc2c(C(N)=O)c(-c3ccc(Oc4ccc(F)cc4F)cc3)nn21` (stereo not shown) [Compound 190, 7-(But-2-ynamidomethyl)-2-(4-(2,4-difluorophenoxy)phenyl)-4,5,6,7-tetrahydropyrazolo[1,5-a]pyrimidine-3-carboxamide] showed an IC50 of 38 nM.
For `NC(=O)c1c(-c2ccc(Oc3ccccc3)cc2)nn2c1[nH]c1cc(N)ccc12` [Compound 129], the IC50 was 23 nM.
In the case of `COCCOc1ccc(-c2nn3c(c2C(N)=O)NCCC3c2ccccc2N)cc1` (stereo not shown) [Compound 21, 7-(2-Aminophenyl)-2-(4-(2-methoxyethoxy)phenyl)-4,5,6,7-tetrahydropyrazolo[1,5-a]pyrimidine-3-carboxamide], the IC50 is reported as over 10000 nM.
Compound `NC(=O)c1c(-c2ccc(Oc3ccccc3)cc2)nn2c3c([nH]c12)CNCC3` [Compound 62, 2-(4-Phenoxyphenyl)-5,6,7,8-tetrahydro-4H-pyrazolo[1′,5′:1,2]imidazo [4,5-c]pyridine-3-carboxamide] has an IC50 of 240 nM.
Work on `NC(=O)c1c(-c2ccc(Oc3ccccc3)cc2)nn2c1[nH]c1ccc([N+](=O)[O-])cc12` [Compound 65, 7-Nitro-2-(4-phenoxyphenyl)-4H-benzo[4,5]imidazo[1,2-b]pyrazole-3-carboxamide] yielded an IC50 of 320 nM.
For `C=CC(=O)Nc1ccccc1C1CCNc2c(C(N)=O)c(-c3ccc(OCc4ccccn4)c(Cl)c3)nn21` (stereo not shown) [Compound 146, 7-(2-Acrylamidophenyl)-2-(3-chloro-4-(pyridin-2-ylmethoxy)phenyl)-4,5,6,7-tetrahydropyrazolo[1,5-a]pyrimidine-3-carboxamide], the IC50 was 1.3 nM.
In the case of `CN(C)CCC(=O)N1CCc2[nH]c3c(C(N)=O)c(-c4ccc(Oc5ccccc5)cc4)nn3c2C1` [Compound 57, 7-(3-(Dimethylamino)propanoyl)-2-(4-phenoxyphenyl)-5,6,7,8-tetrahydro-4H-pyrazolo[5′,1′:2,3]imidazo[4,5-c]pyridine-3-carboxamide trifluoroacetate], the IC50 is reported as 37 nM.
`C=CC(=O)N1CC2(CNc3c(C(N)=O)c(-c4ccc(Oc5ccccc5)cc4)nn3C2)C1` [Compound 88, 1-Acryloyl-2′-(4-phenoxyphenyl)-5′,7′-dihydro-4′H-spiro[azetidine-3,6′-pyrazolo[1,5-a]pyrimidine]-3′-carboxamide] gave an IC50 of 16 nM.
